Experimental data: PubChem BioAssay (NCI)
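GI50 = concentration required for 50% inhibition of growth. TGI denotes the concentration required for complete inhibition of growth.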

How the values were obtained:
Assay in all cases: inhibition of tumour cell growth, NCI panel, 384-well format
[1] = test system: OVCAR-8 ovarian
[2] = test system: MALME-3M melanoma
[3] = test system: LOX IMVI melanoma
[4] = test system: SF-295 CNS
[5] = test system: MDA-MB-231 breast
[6] = test system: SK-MEL-5 melanoma
[7] = test system: SW-620 colon
[8] = test system: NCI-H23 lung
[9] = test system: SK-MEL-28 melanoma
[10] = test system: HS 578T breast
[11] = test system: RXF 393 renal
[12] = test system: UACC-62 melanoma
[13] = test system: IGROV1 ovarian
[14] = test system: HOP-92 NSCLC
[15] = test system: 786-0 renal
[16] = test system: BT-549 breast
[17] = test system: U251 glioblastoma
[18] = test system: SNB-19 CNS
[19] = test system: KM12 colon
[20] = test system: HCT-116 colon
[21] = test system: NCI-H226 lung
[22] = test system: NCI-H522 lung
[23] = test system: SF-539 CNS
[24] = test system: ACHN renal
[25] = test system: HL-60(TB) leukemia
[26] = test system: UACC-257 melanoma
[27] = test system: T-47D breast
[28] = test system: DU-145 prostate
[29] = test system: OVCAR-3 ovarian
[30] = test system: TK-10 renal
[31] = test system: HCC-2998 colon
[32] = test system: MOLT-4 leukemia
[33] = test system: CCRF-CEM leukemia
[34] = test system: RPMI-8226 leukemia
[35] = test system: HCT-15 colon
[36] = test system: OVCAR-5 ovarian
[37] = test system: K-562 leukemia
[38] = test system: CAKI-1 renal
[39] = test system: SN12C renal
[40] = test system: MDA-MB-435 melanoma
[41] = test system: M14 melanoma
[42] = test system: A498 renal
[43] = test system: SK-OV-3 ovarian
[44] = test system: PC-3 prostate
[45] = test system: SF-268 CNS
[46] = test system: HOP-62 NSCLC
[47] = test system: SNB-75 CNS
[48] = test system: MCF7 breast

Nc1ncn(C2OC(CO)C(O)C2O)c(=O)n1 (stereo not given)
GI50 [1]: 1.99 µM | TGI [1]: 17.8 µM | GI50 [2]: 3.3 µM | TGI [2]: 16.7 µM | GI50 [3]: 0.531 µM | TGI [3]: 1.85 µM | GI50 [4]: 2.78 µM | TGI [4]: 16.5 µM | GI50 [5]: 1.55 µM | TGI [5]: 17.4 µM | GI50 [6]: 0.628 µM | TGI [6]: 2.12 µM | GI50 [7]: 2.25 µM | TGI [7]: > 34.7 µM | GI50 [8]: 7.25 µM | TGI [8]: 28.4 µM | GI50 [9]: 3.33 µM | TGI [9]: 18 µM | GI50 [10]: 1.38 µM | TGI [10]: 7.12 µM | GI50 [11]: 1.25 µM | TGI [11]: 10.9 µM | GI50 [12]: 0.561 µM | TGI [12]: 2.78 µM | GI50 [13]: 2.61 µM | TGI [13]: 10.3 µM | GI50 [14]: 2.36 µM | TGI [14]: 30 µM | GI50 [15]: 1.87 µM | TGI [15]: > 42.3 µM | GI50 [16]: 0.694 µM | TGI [16]: 3.31 µM | GI50 [17]: 1.42 µM | TGI [17]: > 33.2 µM | GI50 [18]: 4.47 µM | TGI [18]: > 42.2 µM | GI50 [19]: 2.54 µM | TGI [19]: 11.8 µM | GI50 [20]: 0.627 µM | TGI [20]: 2.57 µM | GI50 [21]: 4.46 µM | TGI [21]: 27.8 µM | GI50 [22]: 1.58 µM | TGI [22]: 6.41 µM | GI50 [23]: 2.07 µM | TGI [23]: 6.09 µM | GI50 [24]: 1.3 µM | TGI [24]: 17 µM | GI50 [25]: 0.372 µM | TGI [25]: 0.806 µM | GI50 [26]: 6.88 µM | TGI [26]: 33.3 µM | GI50 [27]: 4.67 µM | TGI [27]: > 37.6 µM | GI50 [28]: 1.1 µM | TGI [28]: 6.53 µM | GI50 [29]: 1.46 µM | TGI [29]: 5.06 µM | GI50 [30]: 2.3 µM | TGI [30]: 30.5 µM | GI50 [31]: 1.58 µM | TGI [31]: 5.01 µM | GI50 [32]: 1.32 µM | TGI [32]: 2.72 µM | GI50 [33]: 0.993 µM | TGI [33]: 3.67 µM | GI50 [34]: 0.138 µM | TGI [34]: 0.59 µM | GI50 [35]: 2.11 µM | TGI [35]: 8.05 µM | GI50 [36]: 3.22 µM | TGI [36]: 23 µM | GI50 [37]: 0.657 µM | TGI [37]: 5.41 µM | GI50 [38]: 0.466 µM | TGI [38]: 4.35 µM | GI50 [39]: 1.58 µM | TGI [39]: 35.7 µM | GI50 [40]: 1.71 µM | TGI [40]: 8.65 µM | GI50 [41]: 1.45 µM | TGI [41]: 9.78 µM | GI50 [42]: 2.5 µM | TGI [42]: 11.9 µM | GI50 [43]: 3.18 µM | TGI [43]: > 27.7 µM | GI50 [44]: 4.16 µM | TGI [44]: 42.1 µM | GI50 [45]: 4.36 µM | TGI [45]: > 31.9 µM | GI50 [46]: 0.899 µM | TGI [46]: 3.51 µM | GI50 [47]: 2.23 µM | GI50 [48]: 1.56 µM | TGI [48]: > 29.8 µM
